The source of these data is PMC11269185, “Glutamate acts on acid-sensing ion channels to worsen ischaemic brain injury” (Nature, 2024).

Usually Kd stands for the concentration at which binding is half-saturated.

What all share (format): binding
Assay [1] has as its target T1, ASIC1a (acid-sensing ion channel 1a) (Homo sapiens, UniProt P78348).
T1 sequence (P78348 1-528): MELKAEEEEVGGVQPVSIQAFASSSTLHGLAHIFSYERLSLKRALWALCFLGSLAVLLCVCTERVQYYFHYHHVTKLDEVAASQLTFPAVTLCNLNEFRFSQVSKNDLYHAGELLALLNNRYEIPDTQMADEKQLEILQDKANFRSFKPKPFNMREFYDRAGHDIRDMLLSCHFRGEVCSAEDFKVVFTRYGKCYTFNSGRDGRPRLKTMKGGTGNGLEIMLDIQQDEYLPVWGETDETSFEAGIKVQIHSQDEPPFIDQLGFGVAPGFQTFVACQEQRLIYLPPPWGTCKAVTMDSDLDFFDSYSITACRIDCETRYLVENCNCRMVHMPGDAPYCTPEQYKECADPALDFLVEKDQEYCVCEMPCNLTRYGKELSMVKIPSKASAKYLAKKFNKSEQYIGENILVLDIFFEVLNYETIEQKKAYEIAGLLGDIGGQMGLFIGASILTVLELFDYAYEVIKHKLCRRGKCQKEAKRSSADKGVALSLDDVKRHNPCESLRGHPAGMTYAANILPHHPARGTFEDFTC
Briefly: microscale thermophoresis in cell lysate, pH […]; patch clamp (IC50 […] against glutamate potentiation). Details: gene ASIC1; eGFP-tagged wild-type ASIC1a in HEK293T lysate. For orientation: MST reads how a fluorescent partner responds to local heating, with and without ligand.

The target of assay [2] is T1, ASIC1a (acid-sensing ion channel 1a). Briefly: microscale thermophoresis in cell lysate, pH […]; patch clamp. Details: gene ASIC1; GFP-tagged ASIC1a in HEK293T lysate.
Assay [3] has the same target. Briefly: microscale thermophoresis in cell lysate, pH […] ([…] at pH […]); patch clamp. Details: gene ASIC1; GFP-tagged hASIC1a in lysates of transfected HEK293T cells.

With `O=C(O)[C@@H]1C[C@H](CP(=O)(O)O)CCN1` [CGS19755], the Kd in assay [1] worked out at 1100 ± 200 nM.
The molecule `O=C(O)C1CN(C(c2ccccc2)P(=O)(O)O)CCN1` (stereo not drawn) [LK-2] returned an equilibrium dissociation constant (Kd) in assay [2] of 1900 ± 400 nM.
In assay [3], `N[C@@H](CCC(=O)O)C(=O)O` [glutamate] came in with a Kd of 113000 nM.
